Tested on: genes listed in Table 6 (CR marker panel), white adipose tissue
Assay: Testing ingredients for mimicry of caloric restriction: feeding study, RT-qPCR of the Table 6 gene panel in white adipose tissue, fold change as percentage of the fold change in the CR group
Format: in vivo, C57BL/6J mice
Design: key to Avg. CRMI: points per gene: 11-20% mimicry = 1, 21-30% = 2...; opposite effect negative
Details: for Avg. CRMI: CR Mimetic Index, points per gene from mimicry score plus five points for significance; for Avg. mimicry: average over significantly changed genes; for CMII: mimetic index = average mimicry (fraction of CR) x number of significantly changed genes
Text: C57BL/6J mice were purchased from Jackson Laboratories at 6 weeks of age and maintained as described previously in Barger J L, et al. (2008) A Low Dose of Dietary Resveratrol Partially Mimics Caloric Restriction and Retards Aging Parameters in Mice. PLoS ONE 3(6): e2264 (http://dx.doi.org/10.1371/journal.pone.0002264). Briefly, mice were individually housed in shoebox cages and provided with 24 grams (˜84 kcal) of AIN-93M diet per week (7 grams on Monday and Wednesday and 10 grams on Friday). Starting at 8 weeks of age and continuing until 22 weeks of age, mice were either a) maintained on the AIN-93M diet (control group), b) fed a Calorie Restricted (CR) diet providing 63 kcal/week of a modified AIN93M from 8-16 weeks of age and then further reduced to a diet providing 49 kcal/week of a modified AIN93M from 16-22 weeks of age; or c) were assigned to an AIN93M diet supplemented with one of the following test ingredients: 1) bezafibrate at a dose of 5,000 mg/kg diet; 2) metformin at a dose of 1,909 mg/kg diet; 3) L-carnitine at a dose of 1,800 mg/kg diet; 4) blood orange extract at a dose of 18 mg/kg of body weight; 5) purple corn extract at a dose of 22 mg/kg of body weight; 6) resveratrol at a dose of 30 mg/kg of body weight; and 7) quercetin at a dose of 17.6 mg/kg of body weight. At 22 weeks of age, tissues were collected from the mice, flash-frozen in liquid nitrogen and stored at −80° C. for later analysis.
In order to screen the ingredients for their ability to mimic CR, quantitative real-time PCR (RT-qPCR) analysis was performed on RNA isolated from white adipose tissue from all groups of mice. Experimental methods and data analysis for RT-qPCR experiments have been published previously in Barger, J L et al., (2008) Short-term consumption of a resveratrol-containing nutraceutical mixture mimics gene expression of long-term caloric restriction in mouse heart, Exp. Gerontology 43(9):859 (http://dx.doi.org/10.1016/j.exger.2008.06.013). Briefly, the magnitude of change in gene expression was determined for each of the genes listed in Table 6 for the CR and treatment groups compared to the control animals. Two-tailed t-tests (assuming equal variance) were used to determine if the change in expression for individual genes was statistically significant. The magnitude of the change in expression (“fold change”) values were log2-adjusted to fit normality assumptions for statistical analyses.
CR mimicry was expressed as the fold change observed in each gene for the test group as a percentage of the fold change observed for that gene in the CR group.
The ingredients tested were based on their mimetic effect across the gene panel.
Another ranking approach was used to reflect effects across all genes. A CR Mimetic Index (CRMI) was calculated per gene for each ingredient by assigning each a number of points based on its mimicry score for each gene. Positive points were given for positive mimicry values (11 to 20%=1 point, 21 to 30%=2 points, 31 to 40%=3 points, and so on). Negative mimicry values (i.e. where the gene expression effect was opposite that observed for CR) received corresponding negative scores (i.e. −11 to −20%=−1 point, −21 to −30%=−2 points, −31 to −40%=[…], and so on). Five points were added for statistical significance of a mimicry value.
In the experimental protocol of Example 2, bezafibrate at 5,000 mg/kg diet was also compared to lower doses (100 and 500 mg/kg).
Mimetic indices were calculated for the 500 mg/kg and 100 mg/kg doses as in Example 2.

[1] = 100 mg/kg diet, white adipose tissue
[2] = 500 mg/kg diet, white adipose tissue
[3] = 5000 mg/kg diet, white adipose tissue
[4] = fold change as percentage of CR fold change, white adipose tissue
[5] = white adipose tissue, RT-qPCR, C57BL/6J mice fed from 8 to 22 weeks of age, ingredient doses, only significantly changed genes shown
[6] = white adipose tissue, Table 6 gene panel, diet supplemented from 8 to 22 weeks of age, doses (bezafibrate 5,000 mg/kg diet)

## CC(C)(Oc1ccc(CCNC(=O)c2ccc(Cl)cc2)cc1)C(=O)O [Bezafibrate, bezafibrate]
[1]
  CR mimicry Acaca: 20%
  CR mimicry Cd68: 58%
  CR mimicry Gpd2: 23%
  CR mimicry Ifi27I2a: 39%
[2]
  CR mimicry Acaca: 23%
  CR mimicry Acss2: 17%
  CR mimicry Gpd2: 31%
  CR mimicry Me1: 18%
  CR mimicry Nampt: 87%
  CR mimicry Parm1: 19%
  CR mimicry Slc2a4: 69%
[3]
  CR mimicry Acaca: 59%
  CR mimicry Acss2: 21%
  CR mimicry Cd68: 58%
  CR mimicry Gpd2: 93%
  CR mimicry Ifi27I2a: 75%
  CR mimicry Me1: 24%
  CR mimicry Nampt: 233%
  CR mimicry Ndufs4: 108%
  CR mimicry Parm1: 47%
  CR mimicry Slc2a4: 113%
  Avg. CRMI: 128
  CMII: 8.3
[4]
  Avg. mimicry: 83%
Bezafibrate 100 mg/kg diet
  Avg. CRMI (CR Mimetic Index, points per gene): 28
  CMII (average mimicry as fraction of CR x number of significantly changed genes): 1.4
  Avg. mimicry: 35%
Bezafibrate 100 mg/kg diet, white adipose tissue gene panel
  No. of genes significantly changed: 4
Bezafibrate 500 mg/kg diet
  Avg. CRMI (CR Mimetic Index, points per gene): 68
  CMII (average mimicry as fraction of CR x number of significantly changed genes): 2.6
  Avg. mimicry: 38%
Bezafibrate 500 mg/kg diet, white adipose tissue gene panel
  No. of genes significantly changed: 7
Bezafibrate 5000 mg/kg diet
  Avg. CRMI (CR Mimetic Index, points per gene): 128
  CMII (average mimicry as fraction of CR x number of significantly changed genes): 8.3
  Avg. mimicry: 83%
Bezafibrate 5000 mg/kg diet, white adipose tissue gene panel
  No. of genes significantly changed: 10
[5]
  CR mimicry, Acaca (fold change as percentage of the fold change in the CR group): 59%
  CR mimicry, Acss2 (fold change as percentage of the fold change in the CR group): 21%
  CR mimicry, Cd68 (fold change as percentage of the fold change in the CR group): 58%
  CR mimicry, Gpd2 (fold change as percentage of the fold change in the CR group): 93%
  CR mimicry, Ifi27I2a (fold change as percentage of the fold change in the CR group): 75%
  CR mimicry, Me1 (fold change as percentage of the fold change in the CR group): 24%
  CR mimicry, Nampt (fold change as percentage of the fold change in the CR group): 233%
  CR mimicry, Ndufs4 (fold change as percentage of the fold change in the CR group): 108%
  CR mimicry, Parm1 (fold change as percentage of the fold change in the CR group): 47%
  CR mimicry, Slc2a4 (fold change as percentage of the fold change in the CR group): 113%
[6]
  No. of genes significantly changed: 10

## C[N+](C)(C)C[C@H](O)CC(=O)[O-] [L-carnitine]
  Avg. CRMI: 55
  CMII: 2.2
[4]
  Avg. mimicry: 31%
[5]
  CR mimicry, Acaca (fold change as percentage of the fold change in the CR group): 5%
  CR mimicry, Gpd2 (fold change as percentage of the fold change in the CR group): 15%
  CR mimicry, Nampt (fold change as percentage of the fold change in the CR group): 84%
  CR mimicry, Ndufs4 (fold change as percentage of the fold change in the CR group): 40%
  CR mimicry, Parm1 (fold change as percentage of the fold change in the CR group): 3%
  CR mimicry, Serpine1 (fold change as percentage of the fold change in the CR group): 52%
  CR mimicry, Slc2a4 (fold change as percentage of the fold change in the CR group): 16%
[6]
  No. of genes significantly changed: 7

## CN(C)C(=N)N=C(N)N [Metformin, metformin]
  Avg. CRMI: 31
  CMII: 0.6
[4]
  Avg. mimicry: 16%
[5]
  CR mimicry, Acaca (fold change as percentage of the fold change in the CR group): 17%
  CR mimicry, Gpd2 (fold change as percentage of the fold change in the CR group): 27%
  CR mimicry, Me1 (fold change as percentage of the fold change in the CR group): 11%
  CR mimicry, Parm1 (fold change as percentage of the fold change in the CR group): 10%
[6]
  No. of genes significantly changed: 4

## O=c1c(O)c(-c2ccc(O)c(O)c2)oc2cc(O)cc(O)c12 [Quercetin, quercetin]
  Avg. CRMI: 17
  CMII: 0.4
[4]
  Avg. mimicry: 20%
Ranking by mimetic index (CMII), Table 8
  ranking of CR mimicry among tested ingredients: lowest degree of CR mimicry
[5]
  CR mimicry, Gpd2 (fold change as percentage of the fold change in the CR group): 5%
  CR mimicry, Slc2a4 (fold change as percentage of the fold change in the CR group): 35%
[6]
  No. of genes significantly changed: 2

## Oc1ccc(C=Cc2cc(O)cc(O)c2)cc1 [Resveratrol, resveratrol]
  Avg. CRMI: 35
  CMII: 1.38
[4]
  Avg. mimicry: 34%
[5]
  CR mimicry, Acaca (fold change as percentage of the fold change in the CR group): 8%
  CR mimicry, Gpd2 (fold change as percentage of the fold change in the CR group): 10%
  CR mimicry, Nampt (fold change as percentage of the fold change in the CR group): 65%
  CR mimicry, Serpine1 (fold change as percentage of the fold change in the CR group): 55%
[6]
  No. of genes significantly changed: 4

Reference: patent US20160208330A1, “IDENTIFYING MARKERS OF CALORIC RESTRICTION AND CALORIC RESTRICTION MIMETICS” (NSE Products, Inc., priority 2011, published 2016)
